Measurements from patent US5256698A, “Treatment of psychosis using cyclohexyl-phenyl-lower alkyl amine derivatives” (University of Iowa Research Foundation, priority 1990, dated 1993).
Entries after “also recorded” stand apart in the source; their conditions may differ.

What was measured:
[1] = tested on: dopaminergic receptors; test: binding at dopaminergic receptors (summary of dopamine 1 and 2 binding)
Source text: (§1) Any number for a psychoactive drug over 50% is considered highly significant. By way of example, the following Table 2 illustrates a percentage of specific binding for certain known psychoactives capable of binding at other binding sites which are responsible for the undesirable side effects often associated with psychoactive agents.

[2] = tested on: sigma binding sites; test: sigma binding site inhibition: displacement of radiolabelled haldol; conditions: for binding to the sigma binding site (in words): hydrochloride
Description: (§2) The compound prepared in Example 1 was tested for sigma binding site inhibition in comparison with Haldol, a knows selective receptor for sigma binding sites. In particular, a radioligand of haldol was bound to sigma binding sites to provide radio labeled ligands at sigma binding receptor sites of tissue. In the tests, the compound of Example 1 was then added to the cell system to see how successfully it displaced the radioactive ligands at the sigma binding site. The higher the percentage of radio ligand displaced, the greater the percentage of specific binding at the sigma sites.
The compound of Example 2 was tested in a similar fashion to that previously described in order to test comparison with Haldol or sigma binding site activity.

[3] = tested on: Dopamine 2; test: Dopamine 2 binding, [^3 H]-Sulpiride; conditions: for Percent Inhibition: Average, N = 2; for Percent Binding: Table 6 (head from Table 5)
Source text: as §1

[4] = tested on: PCP; test: PCP site binding, [^3 H]-TCP; conditions: for Percent Inhibition / Percent Binding: [^3 H]-TCP; for Percent Inhibition: Average, N = 2; for Percent Binding: Table 6 (head from Table 5)
Source text: as §1
[^3 HTCP is a PCP derivative which selectively labels PCP site; PCP i

[5] = tested on: Dopamine 1; test: Dopamine 1 binding, [^3 H]-SCH 23390; conditions: for Percent Inhibition: Average, N = 2; for Percent Binding: Table 6 (head from Table 5)
Source text: as §1

[6] = tested on: sigma; test: sigma binding capability, [^3 H]-DTG; conditions: for Percent Binding: [^3 H]-DTG
Description: as §2, with “In particular, a radioligand of haldol was bound to sigma binding sites to provide radio labeled ligands at sigma binding receptor sites of tissue.” left out
The following table illustrates testing of sigma binding capability of bromhexine. Again, the test protocol and procedure were as previously described.

[7] = tested on: sigma binding sites; conditions: background; cited from earlier work

SMILES: CCN(CCc1ccccc1)C1CCCCC1.Cl [Example 2, N-cyclohexyl-N-ethyl 2-phenylethylamine hydrochloride]
- binding to dopaminergic sites (in words) [1]: only very weakly binds to the dopaminergic site
- % Displaced Haldol ([2]; Table 3, 10^-5 M, 10 µM): 107.6%
- % Sigma Site Binding ([2]; Table 3, 10^-5 M, 10 µM): -7.6%
- VERIFICATION % Displaced Haldol ([2]; Table 3, 10^-5 M, 10 µM): 91.7%
- VERIFICATION % Sigma Site Binding ([2]; Table 3, 10^-5 M, 10 µM): 8.3%
- % Displaced Haldol ([2]; Table 3, 10^-7 M, 0.1 µM): 84.7%
- % Sigma Site Binding ([2]; Table 3, 10^-7 M, 0.1 µM): 15.3%
- VERIFICATION % Displaced Haldol ([2]; Table 3, 10^-7 M, 0.1 µM): 69.0%
- VERIFICATION % Sigma Site Binding ([2]; Table 3, 10^-7 M, 0.1 µM): 31.0%
- % Displaced Haldol ([2]; Table 3, 10^-9 M, 0.001 µM): 43.2%
- % Sigma Site Binding ([2]; Table 3, 10^-9 M, 0.001 µM): 56.8%
- VERIFICATION % Displaced Haldol ([2]; Table 3, 10^-9 M, 0.001 µM): 33.9%
- VERIFICATION % Sigma Site Binding ([2]; Table 3, 10^-9 M, 0.001 µM): 66.1%
- binding to the sigma binding site (in words) [2]: binds selectively to the sigma and PCP binding sites
- binding to the sigma binding site (in words) ([2]; listed as N-cyclohexyl-N-ethyl 2-phenylethylamine): high degree of active sigma binding capability
- Percent Inhibition ([3]; 10^-5 M): 47.2%
- Percent Inhibition ([3]; 10^-7 M): 7.8%
- Percent Inhibition ([3]; 10^-9 M): 5.9%
- binding to PCP sites (in words) [4]: binds selectively to the sigma and PCP binding sites
- Percent Inhibition ([4]; 10^-5 M): 87.7%
- Percent Inhibition ([4]; 10^-7 M): 21.0%
- Percent Inhibition ([4]; 10^-9 M): 11.1%

SMILES: CCN(Cc1ccccc1)C1CCCCC1.Cl [Example 1, N-cyclohexyl-N-ethylbenzylamine hydrochloride]
- binding to dopaminergic sites (in words) [1]: excluded from binding at dopaminergic receptors
- Percent Inhibition ([5]; 10^-5 M): 10.7%
- Percent Inhibition ([5]; 10^-7 M): 5.9%
- Percent Inhibition ([5]; 10^-9 M): 3.2%
- % Displaced Haldol ([2]; Table 1, 10^-5 M, 10 µM): 96.0%
- % Sigma Site Binding ([2]; Table 1, 10^-5 M, 10 µM): 4.0%
- VERIFICATION % Displaced Haldol ([2]; Table 1, 10^-5 M, 10 µM): 86.7%
- VERIFICATION % Sigma Site Binding ([2]; Table 1, 10^-5 M, 10 µM): 13.3%
- % Displaced Haldol ([2]; Table 1, 10^-7 M, 0.1 µM): 99.1%
- % Sigma Site Binding ([2]; Table 1, 10^-7 M, 0.1 µM): 0.9%
- VERIFICATION % Displaced Haldol ([2]; Table 1, 10^-7 M, 0.1 µM): 61.1%
- VERIFICATION % Sigma Site Binding ([2]; Table 1, 10^-7 M, 0.1 µM): 38.9%
- % Displaced Haldol ([2]; Table 1, 10^-9 M, 0.001 µM): 27.5%
- % Sigma Site Binding ([2]; Table 1, 10^-9 M, 0.001 µM): 72.5%
- VERIFICATION % Displaced Haldol ([2]; Table 1, 10^-9 M, 0.001 µM): 22.5%
- VERIFICATION % Sigma Site Binding ([2]; Table 1, 10^-9 M, 0.001 µM): 77.5%
- binding to the sigma binding site (in words) [2]: selectively binds to the sigma binding site
- binding to the sigma binding site (in words) ([2]; listed as N-cyclohexyl-N-ethyl 2-benzylamine): high degree of active sigma binding capability
- Percent Inhibition ([3]; 10^-5 M): 14.8%
- Percent Inhibition ([3]; 10^-7 M): -1.5%
- Percent Inhibition ([3]; 10^-9 M): -1.4%
- Percent Inhibition ([4]; 10^-5 M): 25.1%
- Percent Inhibition ([4]; 10^-7 M): 7.1%
- Percent Inhibition ([4]; 10^-9 M): 9.4%

SMILES: CN(Cc1cc(Br)cc(Br)c1N)C1CCCCC1 [bromhexine, reference compound]
- Percent Binding ([6]; 10^-5 M, 10 µM): 90.8%
- Percent Binding ([6]; 10^-7 M, 0.1 µM): 45.1%
- Percent Binding ([6]; 10^-9 M, 0.001 µM): 24.8%
- sigma binding capability (in words) ([6]; bromhexine): bind to the sigma site; also recorded: high degree of active sigma binding capability
- binding to dopaminergic sites (in words) [1]: negligible
- Percent Binding ([5]; 10^-5 M, 10 µM): 17.5%
- Percent Binding ([5]; 10^-7 M, 0.1 µM): 10.8%
- Percent Binding ([5]; 10^-9 M, 0.001 µM): 3.9%
- Percent Binding ([3]; 10^-5 M, 10 µM): 11.9%
- Percent Binding ([3]; 10^-7 M, 0.1 µM): 4.5%
- Percent Binding ([3]; 10^-9 M, 0.001 µM): 5.6%
- binding to PCP sites (in words) [4]: negligible
- Percent Binding ([4]; 10^-5 M, 10 µM): -2.5%
- Percent Binding ([4]; 10^-7 M, 0.1 µM): 0.2%
- Percent Binding ([4]; 10^-9 M, 0.001 µM): -13.6%

SMILES: O=C(CCCN1CCC(O)(c2ccc(Cl)cc2)CC1)c1ccc(F)cc1 [haloperidol]
- affinity for sigma binding sites (in words) [7]: high affinity

SMILES: c1ccc(C2(N3CCCCC3)CCCCC2)cc1 [PCP, phencyclidine]
- affinity for sigma binding sites (in words) [7]: also bind at this site
